This note sets out measurements from patent US6376522B1, “4-hydroxyisothiazole compounds” (Ciba Specialty Chemicals Corporation, priority 1999, dated 2002).

What all share (test): Agar incorporation test, MIC
Type in all cases: cell-based

The test system of assay [1] is Staphylococcus aureus ATCC 6538. Here is the method: (§1) An agar incorporation test is carried out to determine the MIC (Minimum Inhibitory Concentration [ppm]) of the compound of formula (101): […]
(§2) The test substances are dissolved in Ethanol, and a dilution series of the compound of the formula […] in agar are prepared.
(§3) Anaerobic bacteria and dermatophytes are cultivated on agar-plates, and washes off with Mueller-Hinton bouillon. Aerobic bacteria are cultivated in Mueller-Hinton bouillon overnight. The test germ suspension are diluted with Mueller-Hinton bouillon to a density of McFarland standard 0.5.
(§4) 10 μl of each germ suspension is dropped onto the agar plates containing the test substance, and the plates are then incubated at 36° C. for 2 to 3 days. (Aerobic bacteria are incubated at 36° C. for 48 hours, anaerobic bacteria are incubated at 30° C. for 72 hours). As controls, the bacterial suspensions are applied to agar plates without test substances. In order to exclude the solvent ethanol having an influence on the growth properties, the bacterial suspensions are applied to agar plates containing ethanol, but without test substance.
(§5) After the plates have been incubated, the growth of the bacteria on the test-substance-containing plates is compared with that of the control plates.

The subject of assay [2] is Corynebacterium xerosis ATCC 373. Conditions: ATCC373, Table 1, 36° C., read-out: MIC (Minimum Inhibitory Concentration) Corynebacterium xerosis ATCC 373. Here is the method:
as §1, §2, §3, §4, §5

The subject of assay [3] is Staphylococcus hominis DSM 20330. Conditions: DSM20330, Table 1, 36° C., read-out: MIC (Minimum Inhibitory Concentration) Staphylococcus hominis DSM 20330. Here is the method: as §1, §2, §3, §4, §5
Assay [4] relates to Aspergillus niger ATCC 6275. The following applies: ATCC6275, Example 3, according to Example 2. The protocol: as §1, §2, §3, §4, §5
Assay [5] relates to Candida albicans ATCC 10231. Conditions: ATCC10231, Example 3, according to Example 2, read-out: MIC CA = Candida albicans ATCC 10231. The protocol: as §1, §2, §3, §4, §5
Assay [6] deals with Staphylococcus hominis DSM 20328. The following applies: DSM20328, Example 3, according to Example 2, read-out: MIC SH = Staphylococcus hominis DSM 20328. The protocol:
as §1, §2, §3, §4, §5

The subject of assay [7] is Escherichia coli NCTC 8196. Conditions: NCTC8196, Example 3, according to Example 2, read-out: MIC EC = Escherichia coli NCTC 8196. Here is the method:
as §1, §2, §3, §4, §5

Where [8] appears, read: ATCC6538, Example 3, according to Example 2, read-out: MIC SA = Staphylococcus aureus ATCC 6538.

Converted amounts (≈) assume the structure as drawn. Like-named read-outs stand apart in the source and are kept apart here.

For `Oc1c(-c2ccccc2)nsc1-c1ccccc1` [(101), 3,5-diphenyl-4-hydroxyisothiazole], the MIC was determined as 5 µg/mL (≈ 19.7 µM) in assay [1] (ATCC6538, read-out: MIC (Minimum Inhibitory Concentration) Staphylococcus aureus ATCC 6538); 5 µg/mL (≈ 19.7 µM) in assay [2]; 50 µg/mL (≈ 197 µM) in assay [3].

For `Oc1c(-c2ccccc2)nsc1-c1ccccc1` [(102)], the MIC turned out to be 13 µg/mL (≈ 51.3 µM) in assay [4]; 10 µg/mL (≈ 39.5 µM) in assay [1] (setting [8]); 50 µg/mL (≈ 197 µM) in assay [5]; 50 µg/mL (≈ 197 µM) in assay [6]; 5 µg/mL (≈ 19.7 µM) in assay [7].

`Oc1csnc1-c1ccccc1` [(103)]: the MIC came out at 100 µg/mL (≈ 564 µM) in assay [4], 50 µg/mL (≈ 282 µM) in assay [1] (setting [8]), 250 µg/mL (≈ 1410 µM) in assay [5] and 250 µg/mL (≈ 1410 µM) in assay [7].

On to `Oc1csnc1Cc1ccccc1` [(104)], for which the MIC in assay [4] stood at 500 µg/mL (≈ 2610 µM); in assay [1] (setting [8]) it was 50 µg/mL (≈ 261 µM); in assay [5], 500 µg/mL (≈ 2610 µM); in assay [7], 250 µg/mL (≈ 1310 µM).

Take `Cc1snc(-c2ccccc2)c1O` [(105)]: the MIC worked out at 10 µg/mL (≈ 52.3 µM) in assay [4], 50 µg/mL (≈ 261 µM) in assay [1] (setting [8]), 50 µg/mL (≈ 261 µM) in assay [5] and 50 µg/mL (≈ 261 µM) in assay [7].

For `CCc1snc(-c2ccccc2)c1O` [(106)], the MIC in assay [4] amounted to 100 µg/mL (≈ 487 µM); in assay [1] (setting [8]), 500 µg/mL (≈ 2440 µM); in assay [5], 500 µg/mL (≈ 2440 µM); in assay [6], 500 µg/mL (≈ 2440 µM); in assay [7], 500 µg/mL (≈ 2440 µM).

With `Oc1c(-c2ccccc2)nsc1Sc1snc(-c2ccccc2)c1O` [(107)], the MIC in assay [1] (setting [8]) and in assay [6] was 5 µg/mL (≈ 13 µM) in each case.

As to `O=C(c1ccc(F)cc1)c1snc(-c2ccc(F)cc2)c1O` [(108)], the MIC in assay [5] was found to be 100 µg/mL (≈ 315 µM).

Regarding `Oc1c(-c2ccc(F)cc2)nsc1Sc1snc(-c2ccc(F)cc2)c1O` [(109)], in assay [6], the MIC was found to be 2 µg/mL (≈ 4.76 µM).
